“Also recorded” adds a separate entry of the source.
Tests used:
[1] = tested on: AChE; assay: AChE catalytic activity (Ellman) in RAW 264.7 cells; format: cell-based, murine
[2] = tested on: AChmiRNA; parameters: species or system mice; settings: mouse
[3] = tested on: AChmiRNA (miRNA-181a); assay: AChmiRNA (miRNA-181a) level by real-time RT-PCR in Meg-01 cells; format: cell-based, human
[4] = tested on: Meg-01 cells; assay: Scanning electron microscopy of Meg-01 cell surface (megakaryocytic maturation); format: cell-based, human; settings: 24 hour treatment
[5] = tested on: Meg-01 cells; assay: Ploidy / DNA content of Meg-01 cells by FACS and propidium iodide; format: cell-based, human; settings: 72 hours
[6] = tested on: Meg-01 cells; assay: Nuclear area measurement of Meg-01 cells; format: cell-based, human; settings: 24 hours
[7] = tested on: AChE-R mRNA; assay: AChE-R mRNA level (RT-PCR, fluorescent in situ hybridization) in Meg-01 cells; format: cell-based, human; settings: for AChE-R mRNA level by FISH (population distribution): agent alone; for AChE-R mRNA level on co-administration with Thapsi: Thapsi 10 nM plus oligo 100 nM
[8] = tested on: AChE-S mRNA; assay: AChE-S mRNA level (fluorescent in situ hybridization) in Meg-01 cells; format: cell-based, human; settings: for AChE-S mRNA level by FISH: agent alone; for AChE-S mRNA level on co-administration with Thapsi: Thapsi 10 nM plus oligo 100 nM
[9] = tested on: AChE-R; assay: AChE-R protein immunocytochemistry in Meg-01 cells; format: cell-based, human; settings: 24 hours
[10] = tested on: AChE-S; assay: AChE-S protein immunocytochemistry in Meg-01 cells; format: cell-based, human; settings: 24 hours
[11] = tested on: activated caspase-3; assay: Activated caspase-3 immunostaining in Meg-01 cells; format: cell-based, human; settings: 24 hours, agent alone
[12] = tested on: activated caspase-9; assay: Activated caspase-9 immunostaining in Meg-01 cells; format: cell-based, human
[13] = tested on: Bcl-2; assay: Bcl-2 immunostaining in Meg-01 cells; format: cell-based, human
[14] = tested on: Meg-01 cells; assay: DNA fragmentation by TUNEL assay in Meg-01 cells; format: cell-based, human
[15] = tested on: Meg-01 cells; assay: Adhesion assay of MEG-01 cells; format: cell-based, human; settings: 72 hours
[16] = tested on: c-Myc; assay: c-Myc immunohistochemistry in Meg-01 cells; format: cell-based, human
[17] = tested on: ASF/SF2; assay: Splice factor ASF/SF2 in Meg-01 cells; format: cell-based, human; settings: data not shown
[18] = tested on: PKCβII; assay: PKCβII immunocytochemistry in Meg-01 cells; format: cell-based, human; settings: 24 hours
[19] = tested on: Murine macrophage RAW 264.7 cells; assay: Nitric oxide production (nitrite, Griess) by RAW 264.7 macrophages; format: cell-based
Procedure: Murine macrophage RAW 264.7 cells were cultured in 48 well plates (50×10^3 cells per well). The production of NO by these macrophages was examined following various stimuli (6 repetitions for each treatment) at three time intervals (6, 12 and 24 hours) as depicted in FIGS. 27a, 27b and 27c.
Mouse RAW cells, human U937 cells and primary human macrophages were treated for 24 h with 1 μM CpG oligonucleotides or 1 μg/ml bacterial lipopolysaccharide added to standard growth medium
Interleukin 6 expression was assayed by QRT-PCR, nitric oxide was measured by Griess assay and prostaglandin E2 levels were measured by R&D ELISA kit according to manufacturer's instructions.

[20] = tested on: AChmiRNA; assay: AChmiRNA expression in human PBMC (quantitative RT-PCR); format: cell-based
[21] = tested on: TBP; assay: TBP transcript in human PBMC (real-time RT-PCR); format: cell-based
[22] = tested on: BDP1; assay: BDP1 transcript in human PBMC (real-time RT-PCR); format: cell-based
[23] = tested on: ASF/SF2; assay: Splicing factor ASF/SF2 in human PBMC (real-time RT-PCR); format: cell-based
[24] = tested on: macrophage miRNAs; assay: Spotted microarray miRNA profile of primary human macrophages; format: cell-based
Description: Macrophages were isolated from buffy coats from healthy donors, underwent pooling that elicited mixed leukocyte response (MLR) and subjected in vitro to several distinct agents or combinations thereof, some known to elicit macrophage activation (listed in Table 2, hereinbelow).
The mirVana (Ambion, Austin, Tex.) oligonucleotide set was used to construct the in-house array. The microarray carried 200 spotted probes complementary to known human and mouse miRNAs. To compose the array, the mirVana probeset was dissolved in 3×SSC to a final concentration of […], and printed on Ultragaps slides (Corning, Corning, N.Y.), using the MicroGrid spotter (Genomic Solutions, Holliston, Mass.). The array layout contained 12 subgrids, each composed of 11 rows and 12 columns. Each oligonucleotide was spotted 6 times on the array. The experiments were designed for comparison of two samples. Data was therefore always relative rather than absolute. In these experiments, a “reference design” (Churchill, 2002, Nature genetics, 32, 490-495) was used, in which RNA from cells or tissues is compared. In addition, dye-swapping tests were performed, aimed to exclude dye-specific labeling differences (Dombkowski et al., 2004, FEBS Lett, 560, 120-124). Labeling was performed using the CyDye reactive dye pack (Amersham, NSW, Australia), as instructed. Pre-hybridization was in pre-heated S×SSC, 1% BSA, 0.1% SDS solution, at 42° C. for 45 min. Cy3 and Cy5-labeled fragmented RNA (3 ug each) were added to the hybridization solution (3×SSC, 0.1% SDS, 10 μg polyA, 20 μg tRNA), heated at 95° C. for 4 minutes for eliminating secondary structures and applied to the slides in hybridization chambers (Corning, N.Y., USA) for 15 h at 64° C. Hybridized slides were successively washed in: 1×SSC, 0.1% SDS (5 min); 0.1×SSC, 0.1% SDS (5 min) and 0.1×SSC (3×1.5 min) and were dried by centrifugation (˜1000 g).
This was adapted from (Ben-Ari S, et al., J. Neurochem. 2006 April; 97 Suppl 1:24-34.) Briefly, an Affymetrix 428 Array Scanner was used at the maximum gain setting, at the wavelengths of 532 nm and 650 nm Scans were controlled by the “Jaguar” software (Affymetrix, Calif., USA), saved as TIFF files and exported to the “Imagene” program (Biodiscovery Inc, CA, USA) to define the spots, convert the intensity signals into numbers and calculate quality parameters such as “shape regularity”, “empty spot” etc. Data normalization, exclusion of unreliable spots and combining the information from all 4 slides were performed in an in-house Matlab program. First, median background was subtracted from the median signal intensity, to normalize background noises. Background area was defined as a circle of 5 pixels diameter separated from the signal area by 4 pixels. […]. Spot quality was examined according to pre-defined Imagene's parameters, standard deviation of pixels intensity in each spot etc. Spots with intensities below the threshold derived from the negative control spots or with saturated pixel values were excluded. The Cy3 and Cy5 signal intensities of each spot were normalized to the mean Cy3 and Cy5 intensities in the slide. For each spot, an initial Cy3/Cy5 ratio has been calculated, and was transformed to a log 2 basis. This value was designated LR (log 2 ratio). […]. Then, results from all valid spots (up to 6) representing the same oligonucleotide were combined. Probes with less than 3 valid spots were excluded, and median and mean LR were calculated.
Covariance between treatments was calculated in OpenOffice 1.1 for Mac OS X, using the entire miRNA collection represented on the chip (for signals that failed the MatLab analysis, a Median LR value of 0 was assigned).
The mirVana oligo set (Ambion, Austin, Tex.; Catalog number 1564V1) was used to construct our in-house array with >200 spotted probes complementary to known human and mouse miRs. […]

[25] = tested on: CD54 and CD40; settings: cited from earlier work
[26] = tested on: miRNA181a; assay: Northern blot of miRNA181a in Meg-01 cells; format: cell-based, human; settings: in the presence or absence of Thapsi and/or AChmiON
Procedure: Cultured Meg-01 cells were co-incubated with thapsigargin (10 nM) and synthetic AChmiON (miR-181) (SEQ ID NO:23; at 100 nM) or anti-miR-181 (SEQ ID NO:24 (modified, identical in sequence to SEQ ID NO:2); at 100 nM.

C=CC[N+](C)(C)c1ccc(CCC(=O)CCc2ccc([N+](C)(C)CC=C)cc2)cc1.[Br-].[Br-] [BW284c51, 1,5-Bis(4-allyldimethylammoniumphenyl)pentan-3-one dibromide]
AChE activity ([1]; RAW 264.7 cells, 24 hr, LPS 1 μg/ml, BW 284 C51 10 μM (Example 13)): reduced AChE activity | AChE activity ([1]; macrophages (RAW 264.7), 1 micromolar BW284c51, 100 nanomolar CpG 1826): decrease

CN1CC=C(c2ccccc2)CC1 [MPTP, 1-Methyl-4-phenyl-1,2,3,6-tetrahydropyridine]
AChmiRNA levels in vivo [2]: decreases of AChmiRNA levels

C/C=C(/C)C(=O)O[C@H]1C(C)=C2[C@H]([C@@H]1OC(=O)CCCCCCC)[C@@](C)(OC(C)=O)C[C@H](OC(=O)CCC)[C@@]1(O)[C@H]2OC(=O)[C@@]1(C)O [Thapsi, Thapsigargin]
level of AChmiRNA ([3]; Meg-01 cells treated for 24 hours, agent alone): induced a decrease in AChmiRNA | decrease in the levels of AChmiRNA ([3]; Meg-01 cells, Thapsi treatment (ER-calcium release), real-time RT-PCR): 50% | cell surface morphology (scanning electron microscopy) [4]: a very early stage in the formation of demarcation membranes | ploidy (DNA content) [5]: a bigger fraction of cells became polyploid | nuclear area / nuclei size [6]: increase in the nuclear area | AChE-R mRNA level (RT-PCR) ([7]; 24 hours): increasing the levels of AChE-R mRNA variant | AChE-R mRNA level by FISH (population distribution) [7]: rightward shift in the population distribution of labeling intensity; also recorded: increase in AChE-R mRNA level | AChE-S mRNA level by FISH [8]: decrease in AChE-S mRNA level | AChE-R protein level (immunohistochemistry) [9]: increase also in the protein level | expression of the AChE-S variant (immunohistochemistry) [10]: decrease of expression of the AChE-S variant | incidence of activated caspase-3 positive cells [11]: increase in the incidence of activated caspase-3 positive cells | incidence of activated caspase-9 positive cells [12]: increased the incidence of positive cells for activated caspase-9 immunostaining | immunoreactivity of Bcl-2 [13]: decrease in the immunoreactivity of Bcl-2 | DNA fragmentation / cell death (TUNEL) [14]: no significant changes | cell adhesion [15]: increased adhesion of treated cells | c-myc expression ([16]; agent alone): c-myc increase induced by Thapsi | splice factor ASF/SF2 [17]: induced | staining intensity for PKCβ [18]: increased staining intensity for PKCβ

AChmiON: fully 2′-O-methylated oligonucleotide with the sequence of human/murine miRNA-181a (modified SEQ ID NO:23; unmodified SEQ ID NO:1) (AACAUUCAACGCUGUCGGUGAGU; all 2'-O-methyl, backbone not given here)
AChE-R mRNA level on co-administration with Thapsi [7]: inhibiting the increase in AChE-R mRNA level | AChE-R mRNA level by FISH (population distribution) [7]: levels remained unchanged | AChE-S mRNA level on co-administration with Thapsi [8]: keeping AChE-S mRNA level above control values | AChE-S mRNA level by FISH [8]: increased the fraction of cells with high AChE-S levels | DNA fragmentation / cell death (TUNEL) [14]: increased incidence of positive cells; also recorded: significantly increased apoptosis | cell adhesion [15]: suppressed this effect | Thapsi-induced c-myc increase on co-treatment ([16]; Thapsi plus AChmiON): could not prevent the c-myc increase induced by Thapsi | Thapsi-induced ASF/SF2 on co-treatment ([17]; Thapsi plus AChmiON): suppressed part of this effect | speed of the NO response ([19]; RAW 264.7, 6, 12 and 24 hours): slower than the response to LPS or IFN-γ | maximal NO effect relative to the LPS effect ([19]; RAW 264.7, 24 hour post-treatment, AChmiON 100 nM): about 80% | Nitrite concentration reflecting NO production ([19]; RAW 264.7, 24 hours, LPS 1 μg/ml, IFN-γ 4 ng/ml, oligos 100 nM): 38 µM | NO production versus control (in words) ([19]; RAW 264.7 macrophages): significantly up-regulated NO production

CpG ODN 2006
AChmiRNA expression [20]: suppressed | TBP transcript [21]: suppressed | BDP1 transcript [22]: suppressed | splicing factor ASF/SF2 levels [23]: reduced levels | similarity of effects on the miRNA profile (covariance) [24]: invoke the closest effects on the miRNA profile | miR-132 expression (spotted microarray) ([24]; 24 h, 1 μg/ml LPS or ODN 2006 1 uM): consistently being up-regulated | extent of change in miRNA expression (miRNAs beyond median LR=0.25) ([24]; LPS 1 μg/ml, CpG 1 μM, EN101 1 μM): caused the greatest change | miR-17-5p expression ([24]; spotted array): down-regulated by CpG alone | miR-30a-3p and miR-372 expression ([24]; spotted array): consistently down-regulated | miRNAs down-regulated ([24]; spotted array): miR-9-1*, 26a-1, 27a, 33, 93, 140, 145, 185, 221, and 298 | miRNAs up-regulated ([24]; spotted array): miR-183, 292-3p, 302c, 361, and 381 | expression of CD54 and CD40 [25]: enhanced expression of CD54 and CD40

anti-AChmiRNA: antisense oligonucleotide complementary to AChmiRNA (SEQ ID NO:2; modified SEQ ID NO:24) (ACUCACCGACAGCGUUGAAUGUU; modified, pattern not given here)
AChE-R mRNA level on co-administration with Thapsi [7]: maintaining the increase in AChE-R mRNA | AChE-S mRNA level on co-administration with Thapsi [8]: prevented the Thapsigargin-induced suppression of AChE-S mRNA | DNA fragmentation / cell death (TUNEL) [14]: normal level of TUNEL staining | level of AChmiRNA (miRNA181a) by Northern blot [26]: decreased the level of anti-AChmiRNA | level of AChmiRNA (miRNA181a) by Northern blot ([26]; listed as anti-miR181): reducing the level of miRNA181a in the presence or absence of Thapsi and/or AChmiON
